From ChEMBL document CHEMBL5634174, “Biological evaluation of sulfonate and sulfate analogues of lithocholic acid: A bioisosterism-guided approach towards the discovery of potential sialyltransferase inhibitors for antimetastatic study” (Bioorg Med Chem Lett, 2024) come the findings set out here.

Active and inactive are the calls of the source. No cut-off for these calls is given here.

Experiment [1] concerns the target Integrin beta-1 (Homo sapiens) (UniProt P05556). Briefly: Inhibition of integrin beta-1 in human MDA-MB-231 cells assessed as decrease in sialylation level incubated for 48 hrs by Western blot analysis. In kind it is cell-based. Particulars: dose 20-80 µM. Background: In western blotting, separated proteins are transferred to a membrane and probed.
Experiment [2] deals with Integrin alpha-V (Homo sapiens) (UniProt P06756). The experiment in a line: Inhibition of integrin alpha-v in human MDA-MB-231 cells assessed as decrease in sialylation level incubated for 48 hrs by Western blot analysis. The format is cell-based. Particulars: dose 20-80 µM.
Integrin alpha-V (Homo sapiens), sequence (P06756 31-889 limits assumed): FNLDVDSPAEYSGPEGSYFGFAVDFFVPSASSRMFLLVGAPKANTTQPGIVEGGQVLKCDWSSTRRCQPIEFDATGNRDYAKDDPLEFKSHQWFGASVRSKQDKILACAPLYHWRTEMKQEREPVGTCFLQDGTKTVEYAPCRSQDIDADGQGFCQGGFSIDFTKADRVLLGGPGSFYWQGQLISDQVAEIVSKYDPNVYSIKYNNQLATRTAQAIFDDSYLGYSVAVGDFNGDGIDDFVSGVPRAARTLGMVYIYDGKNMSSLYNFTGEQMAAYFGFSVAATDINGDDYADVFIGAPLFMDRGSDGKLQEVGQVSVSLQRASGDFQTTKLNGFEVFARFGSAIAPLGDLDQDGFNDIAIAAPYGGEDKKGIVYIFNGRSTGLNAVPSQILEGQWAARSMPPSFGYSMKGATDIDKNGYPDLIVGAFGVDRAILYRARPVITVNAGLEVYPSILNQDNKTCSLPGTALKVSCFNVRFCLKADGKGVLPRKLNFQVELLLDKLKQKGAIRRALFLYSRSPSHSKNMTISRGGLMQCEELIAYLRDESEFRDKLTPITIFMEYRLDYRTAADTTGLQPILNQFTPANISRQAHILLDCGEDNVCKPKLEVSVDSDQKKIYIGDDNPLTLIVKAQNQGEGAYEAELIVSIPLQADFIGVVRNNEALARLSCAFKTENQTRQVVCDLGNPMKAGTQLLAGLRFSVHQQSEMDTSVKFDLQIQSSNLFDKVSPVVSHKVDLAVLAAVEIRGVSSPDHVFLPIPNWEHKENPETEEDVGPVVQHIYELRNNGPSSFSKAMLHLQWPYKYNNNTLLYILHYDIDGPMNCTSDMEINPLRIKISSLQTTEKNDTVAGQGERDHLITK
Integrin alpha-V (Homo sapiens), sequence (P06756 891-1048 limits assumed): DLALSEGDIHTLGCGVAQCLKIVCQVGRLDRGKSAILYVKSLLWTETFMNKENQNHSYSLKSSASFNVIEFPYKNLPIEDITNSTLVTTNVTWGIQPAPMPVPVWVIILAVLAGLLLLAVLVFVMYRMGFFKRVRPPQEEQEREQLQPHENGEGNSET
Experiment [3] relates to MDA-MB-231. The experiment in a line: Effect on total paxillin expression level in human MDA-MB-231 cells at 20 to 80 uM incubated for 2 hrs by Western blot analysis. The format is functional, cell-based. Particulars: dose 20-80 µM.
Experiment [4] addresses T1, Beta-galactoside alpha-2,6-sialyltransferase 1 (Homo sapiens) (UniProt P15907).
T1 sequence (whole entry): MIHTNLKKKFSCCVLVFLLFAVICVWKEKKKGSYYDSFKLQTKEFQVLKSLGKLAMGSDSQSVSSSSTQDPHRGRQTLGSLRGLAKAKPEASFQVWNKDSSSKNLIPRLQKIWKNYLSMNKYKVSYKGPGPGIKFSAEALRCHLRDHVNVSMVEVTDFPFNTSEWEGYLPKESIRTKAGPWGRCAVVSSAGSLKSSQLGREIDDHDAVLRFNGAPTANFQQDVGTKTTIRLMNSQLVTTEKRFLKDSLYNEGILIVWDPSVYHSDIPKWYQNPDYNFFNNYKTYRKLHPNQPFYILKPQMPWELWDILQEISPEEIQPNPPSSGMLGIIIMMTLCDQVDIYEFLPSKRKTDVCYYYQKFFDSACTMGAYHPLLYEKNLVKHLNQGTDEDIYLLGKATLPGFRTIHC
Briefly: Inhibition of recombinant human N-terminal His tagged ST6GAL1 (44 to 406 residues) at 50 uM by UPLC-based assay relative to control.

Experiment [5] addresses T2, Sialyltransferase ST3Gal-I (Rattus norvegicus, UniProt Q6H8N0).
T2 sequence (Q6H8N0 whole entry): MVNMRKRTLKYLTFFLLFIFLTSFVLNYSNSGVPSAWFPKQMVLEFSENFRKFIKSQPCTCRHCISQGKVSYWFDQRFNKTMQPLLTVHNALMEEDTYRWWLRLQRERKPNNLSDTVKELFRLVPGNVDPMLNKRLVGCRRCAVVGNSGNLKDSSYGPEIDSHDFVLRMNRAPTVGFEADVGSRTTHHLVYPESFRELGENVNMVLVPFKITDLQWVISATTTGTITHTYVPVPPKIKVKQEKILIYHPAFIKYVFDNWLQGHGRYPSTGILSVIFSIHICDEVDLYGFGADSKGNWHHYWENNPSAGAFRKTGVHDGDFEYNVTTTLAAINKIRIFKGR
The experiment in a line: Inhibition of rat ST3GAL1 by UPLC-based assay.

The target of experiment [6] is Focal adhesion kinase 1 (Homo sapiens) (UniProt Q05397). Briefly: Inhibition of FAK phosphorylation at Y397 residue in human MDA-MB-231 cells incubated for 2 hrs by Western blot analysis. In kind it is cell-based. Particulars: dose 20-80 µM.
Focal adhesion kinase 1 (Homo sapiens), sequence (Q05397 2-1052 limits assumed): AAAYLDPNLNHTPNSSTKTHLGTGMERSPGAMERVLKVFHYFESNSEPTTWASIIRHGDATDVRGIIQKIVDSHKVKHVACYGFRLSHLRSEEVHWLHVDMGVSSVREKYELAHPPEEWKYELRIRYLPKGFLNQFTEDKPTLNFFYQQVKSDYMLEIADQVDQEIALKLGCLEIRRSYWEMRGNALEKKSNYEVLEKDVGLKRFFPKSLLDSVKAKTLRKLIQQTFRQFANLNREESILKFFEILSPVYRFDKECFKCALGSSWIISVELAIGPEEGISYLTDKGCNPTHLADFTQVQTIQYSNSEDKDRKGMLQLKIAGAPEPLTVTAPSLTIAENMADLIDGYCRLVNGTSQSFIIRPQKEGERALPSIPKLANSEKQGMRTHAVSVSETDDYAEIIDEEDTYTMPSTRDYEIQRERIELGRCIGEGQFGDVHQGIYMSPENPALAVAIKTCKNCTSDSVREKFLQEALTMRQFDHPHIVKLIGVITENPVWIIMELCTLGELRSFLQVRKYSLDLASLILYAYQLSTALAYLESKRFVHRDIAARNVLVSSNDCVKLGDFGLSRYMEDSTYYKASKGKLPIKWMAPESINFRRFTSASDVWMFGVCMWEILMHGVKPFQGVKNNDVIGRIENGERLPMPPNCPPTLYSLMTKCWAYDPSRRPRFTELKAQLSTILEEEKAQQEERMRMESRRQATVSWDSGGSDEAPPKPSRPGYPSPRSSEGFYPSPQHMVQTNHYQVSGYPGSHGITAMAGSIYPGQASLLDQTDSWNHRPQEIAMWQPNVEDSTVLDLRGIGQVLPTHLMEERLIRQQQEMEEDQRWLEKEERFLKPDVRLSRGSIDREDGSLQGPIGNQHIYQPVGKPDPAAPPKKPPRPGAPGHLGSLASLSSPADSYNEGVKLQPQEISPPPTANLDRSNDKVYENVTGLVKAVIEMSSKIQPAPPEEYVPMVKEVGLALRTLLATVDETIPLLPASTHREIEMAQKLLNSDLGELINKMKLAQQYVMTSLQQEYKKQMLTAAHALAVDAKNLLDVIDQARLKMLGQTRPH
Experiment [7] has the same target. The experiment in a line: Inhibition of FAK phosphorylation at Y397 residue in human MDA-MB-231 cells at 80 uM incubated for 2 hrs by Western blot analysis. The format is cell-based.
Experiment [8] addresses T3, Beta-galactoside alpha-2,6-sialyltransferase 1 (Homo sapiens, UniProt P15907).
T3 sequence (P15907 whole entry): T1 sequence (whole entry)
Briefly: Inhibition of recombinant human N-terminal His tagged ST6GAL1 (44 to 406 residues) by UPLC-based assay.

Experiment [9] deals with MDA-MB-231. The experiment in a line: Inhibition of cell invasion in human MDA-MB-231 cells assessed as reduction in cell adhesion to fibronectin at 60 uM incubated for 24 hrs. The format is functional, cell-based.
The test system of experiment [10] is MDA-MB-231. The experiment in a line: Effect on total FAK expression level in human MDA-MB-231 cells at 20 to 80 uM incubated for 2 hrs by Western blot analysis. In kind it is functional, cell-based. Particulars: dose 20-80 µM.
In experiment [11] the target is Integrin alpha-5 (Homo sapiens) (UniProt P08648). The experiment in a line: Inhibition of integrin alpha-5 in human MDA-MB-231 cells assessed as decrease in sialylation level incubated for 48 hrs by Western blot analysis. The format is cell-based. Particulars: dose 20-80 µM.
Integrin alpha-5 (Homo sapiens), sequence (P08648 42-894 limits assumed): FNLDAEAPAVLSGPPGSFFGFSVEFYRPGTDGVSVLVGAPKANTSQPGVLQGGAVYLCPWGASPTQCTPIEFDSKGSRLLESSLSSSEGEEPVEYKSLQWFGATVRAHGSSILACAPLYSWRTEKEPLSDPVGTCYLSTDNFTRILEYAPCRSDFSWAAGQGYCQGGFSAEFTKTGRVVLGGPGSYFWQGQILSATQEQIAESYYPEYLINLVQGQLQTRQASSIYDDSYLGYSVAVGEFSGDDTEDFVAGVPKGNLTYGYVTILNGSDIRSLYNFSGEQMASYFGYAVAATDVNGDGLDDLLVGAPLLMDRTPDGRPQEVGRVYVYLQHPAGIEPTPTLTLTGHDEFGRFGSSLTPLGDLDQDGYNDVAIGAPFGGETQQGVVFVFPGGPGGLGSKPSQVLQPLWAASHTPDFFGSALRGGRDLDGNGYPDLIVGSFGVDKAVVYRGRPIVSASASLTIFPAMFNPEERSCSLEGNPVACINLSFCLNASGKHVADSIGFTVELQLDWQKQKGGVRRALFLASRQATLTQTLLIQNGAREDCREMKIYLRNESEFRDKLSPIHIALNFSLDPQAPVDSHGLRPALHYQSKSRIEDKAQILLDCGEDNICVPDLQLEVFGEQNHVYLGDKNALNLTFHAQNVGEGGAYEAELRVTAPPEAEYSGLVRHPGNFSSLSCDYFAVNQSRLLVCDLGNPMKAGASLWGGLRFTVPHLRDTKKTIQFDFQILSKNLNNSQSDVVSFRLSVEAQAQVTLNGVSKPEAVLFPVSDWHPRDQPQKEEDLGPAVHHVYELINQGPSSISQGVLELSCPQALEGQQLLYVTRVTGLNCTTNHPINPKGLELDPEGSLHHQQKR
Integrin alpha-5 (Homo sapiens), sequence (P08648 895-1049 limits assumed): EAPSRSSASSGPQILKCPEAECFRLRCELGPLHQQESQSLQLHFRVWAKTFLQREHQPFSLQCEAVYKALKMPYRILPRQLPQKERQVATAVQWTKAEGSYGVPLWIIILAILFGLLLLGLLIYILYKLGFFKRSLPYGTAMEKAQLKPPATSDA
For experiment [12], the system named is MDA-MB-231. The experiment in a line: Antimigratory activity against human MDA-MB-231 cells at 60 uM incubated for 16 hrs by transwell migration assay. In kind it is functional, cell-based.
The target of experiment [13] is Focal adhesion kinase 1 (Homo sapiens) (UniProt Q05397). Briefly: Inhibition of FAK phosphorylation at Y576/577 residue in human MDA-MB-231 cells at 80 uM incubated for 2 hrs by Western blot analysis. The format is cell-based.
The target in experiment [14] is T4, Sialyltransferase ST3Gal-I (Rattus norvegicus) (UniProt Q6H8N0).
T4 sequence (whole entry): T2 sequence (Q6H8N0 whole entry)
The experiment in a line: Inhibition of rat ST3GAL1 at 500 uM by UPLC-based assay relative to control.

The target in experiment [15] is Paxillin (Homo sapiens) (UniProt P49023). Briefly: Inhibition of paxillin phosphorylation at Y118 residue in human MDA-MB-231 cells at 80 uM incubated for 2 hrs by Western blot analysis. In kind it is cell-based.
Paxillin (Homo sapiens), sequence (P49023 whole entry): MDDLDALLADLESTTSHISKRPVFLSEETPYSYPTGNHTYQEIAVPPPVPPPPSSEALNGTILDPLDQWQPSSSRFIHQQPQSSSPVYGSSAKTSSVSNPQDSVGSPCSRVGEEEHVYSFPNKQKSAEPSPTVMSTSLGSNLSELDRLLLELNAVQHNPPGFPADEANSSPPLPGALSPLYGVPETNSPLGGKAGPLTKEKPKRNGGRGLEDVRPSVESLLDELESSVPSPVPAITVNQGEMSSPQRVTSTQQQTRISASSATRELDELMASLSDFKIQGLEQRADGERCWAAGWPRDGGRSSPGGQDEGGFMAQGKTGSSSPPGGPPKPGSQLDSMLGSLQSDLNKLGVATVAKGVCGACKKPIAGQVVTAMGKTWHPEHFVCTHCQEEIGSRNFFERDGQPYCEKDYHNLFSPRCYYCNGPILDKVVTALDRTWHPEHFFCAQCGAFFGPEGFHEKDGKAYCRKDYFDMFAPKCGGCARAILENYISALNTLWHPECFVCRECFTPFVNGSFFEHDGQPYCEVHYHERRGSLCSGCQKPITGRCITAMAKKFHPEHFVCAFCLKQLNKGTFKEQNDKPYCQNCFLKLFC
Experiment [16] addresses T5, Integrin beta-5 (Homo sapiens) (UniProt P18084).
T5 sequence (whole entry): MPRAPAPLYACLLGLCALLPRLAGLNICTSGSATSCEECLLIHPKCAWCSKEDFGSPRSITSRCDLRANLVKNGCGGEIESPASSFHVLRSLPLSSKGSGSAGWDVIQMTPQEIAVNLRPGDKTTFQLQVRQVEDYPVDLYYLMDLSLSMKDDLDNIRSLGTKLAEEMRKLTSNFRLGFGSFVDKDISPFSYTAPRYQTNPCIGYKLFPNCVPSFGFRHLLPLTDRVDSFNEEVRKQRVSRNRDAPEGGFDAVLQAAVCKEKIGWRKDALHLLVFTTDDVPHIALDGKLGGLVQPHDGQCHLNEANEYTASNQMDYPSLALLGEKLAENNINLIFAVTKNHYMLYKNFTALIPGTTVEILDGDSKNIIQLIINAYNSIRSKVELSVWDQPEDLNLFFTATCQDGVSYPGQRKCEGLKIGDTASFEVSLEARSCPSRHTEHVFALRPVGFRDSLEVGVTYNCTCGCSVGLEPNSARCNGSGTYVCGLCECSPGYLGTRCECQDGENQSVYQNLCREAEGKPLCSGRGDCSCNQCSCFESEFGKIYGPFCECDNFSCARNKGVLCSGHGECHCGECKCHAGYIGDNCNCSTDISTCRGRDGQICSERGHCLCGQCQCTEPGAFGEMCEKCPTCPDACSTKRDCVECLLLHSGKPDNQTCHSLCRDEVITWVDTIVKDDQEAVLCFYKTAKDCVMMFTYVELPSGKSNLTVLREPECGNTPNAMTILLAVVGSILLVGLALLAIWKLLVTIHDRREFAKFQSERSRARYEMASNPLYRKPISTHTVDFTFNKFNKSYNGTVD
The experiment in a line: Inhibition of integrin beta-5 in human MDA-MB-231 cells assessed as decrease in sialylation level incubated for 48 hrs by Western blot analysis. The format is cell-based. Particulars: dose 20-80 µM.

Experiment [17] concerns the target Paxillin (Homo sapiens) (UniProt P49023). Briefly: Inhibition of paxillin phosphorylation at Y118 residue in human MDA-MB-231 cells incubated for 2 hrs by Western blot analysis. The format is cell-based. Particulars: dose 20-80 µM.

Integrin beta-1 (Homo sapiens), sequence (P05556 whole entry): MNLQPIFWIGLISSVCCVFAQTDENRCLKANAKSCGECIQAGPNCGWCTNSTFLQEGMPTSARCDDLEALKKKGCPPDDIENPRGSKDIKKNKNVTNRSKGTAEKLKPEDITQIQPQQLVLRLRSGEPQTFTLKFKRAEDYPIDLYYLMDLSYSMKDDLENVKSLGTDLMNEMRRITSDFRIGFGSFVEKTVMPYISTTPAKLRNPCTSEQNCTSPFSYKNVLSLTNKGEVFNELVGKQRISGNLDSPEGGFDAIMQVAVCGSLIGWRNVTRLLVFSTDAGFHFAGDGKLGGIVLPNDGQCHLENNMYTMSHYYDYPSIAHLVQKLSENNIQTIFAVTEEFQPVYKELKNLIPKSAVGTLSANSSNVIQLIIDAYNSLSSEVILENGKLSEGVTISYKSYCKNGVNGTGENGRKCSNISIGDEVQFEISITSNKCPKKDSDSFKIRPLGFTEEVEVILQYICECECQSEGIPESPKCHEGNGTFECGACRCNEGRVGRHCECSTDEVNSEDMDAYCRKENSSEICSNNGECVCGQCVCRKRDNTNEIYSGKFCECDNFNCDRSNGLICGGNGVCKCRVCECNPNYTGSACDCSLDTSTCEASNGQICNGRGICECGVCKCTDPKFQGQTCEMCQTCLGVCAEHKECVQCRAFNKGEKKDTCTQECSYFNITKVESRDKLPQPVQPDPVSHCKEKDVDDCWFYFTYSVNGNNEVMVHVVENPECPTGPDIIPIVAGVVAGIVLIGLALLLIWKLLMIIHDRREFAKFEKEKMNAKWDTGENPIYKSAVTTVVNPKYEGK

Consider `C[C@H](CCCOS(=O)(=O)O)[C@H]1CC[C@H]2[C@@H]3CC[C@@H]4C[C@H](O)CC[C@]4(C)[C@H]3CC[C@]12C`, for which the Activity result in experiment [1], in experiment [2], in experiment [11] and in [16] was “Dose-Dependent Effect” throughout. In addition, the result with MDA-MB-231 [3] and with MDA-MB-231 [10] was inactive. The inhibition in experiment [4] was 100%; in experiment [6] it was “Dose-Dependent Effect”; in experiment [14] it was 3%; at Paxillin (Homo sapiens) [17], “Dose-Dependent Effect”. The IC50 in experiment [5] was more than 1000 µM; in experiment [8] it was 16.7 µM. The inhibition result (in experiment [7]; in the experiment on MDA-MB-231 [9]; in experiment [13]; at Paxillin (Homo sapiens) [15]) was “Active” throughout. Further, in the experiment on MDA-MB-231 [12], the outcome was Active.

The inhibition is the change of the read-out against control, counted positive when it falls. As usually defined, the IC50 is the concentration needed to halve the response being measured.
